Among the data in PubChem BioAssay AID248 (DTP/NCI, 2004) are T/C values, retold here.

Each structure is given as a SMILES string. Toxic doses and inconclusive results are not listed.

This assay deals with L1210 leukemia ip in BDF1 mice, survival T/C. The assay can be described thus: NCI In Vivo Anticancer Drug Screen. Data for tumor model L1210 Leukemia (intraperitoneal) in B6D2F1 (BDF1) mice. The settings on record: endpoint: mean survival time, higher = longer survival. In a few lines: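 Tumor was transplanted into mice, which were then dosed with test compound or vehicle alone. Survival was recorded for each group, and the treated figure was expressed relative to the control figure.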

Setting [1] is: dose: 25.0 mg/kg/injection, schedule: Q04DX003 (ip), vehicle: saline with Tween-80.
Setting [2] is: dose: 50.0 mg/kg/injection, schedule: Q04DX003 (ip), vehicle: saline with Tween-80.
Where [3] appears, read: dose: 100.0 mg/kg/injection, schedule: Q04DX003 (ip), vehicle: saline with Tween-80.
Where [4] appears, read: dose: 200.0 mg/kg/injection, schedule: Q04DX003 (ip), vehicle: saline with Tween-80.
[5] abbreviates: dose: 400.0 mg/kg/injection, schedule: Q04DX003 (ip), vehicle: saline with Tween-80.
Where [6] appears, read: dose: 100.0 mg/kg/injection, schedule: Q01DX001 (ip), vehicle: carboxymethylcellulose (CMC).
[7] abbreviates: dose: 200.0 mg/kg/injection, schedule: Q01DX001 (ip), vehicle: carboxymethylcellulose (CMC).
[8] abbreviates: dose: 400.0 mg/kg/injection, schedule: Q01DX001 (ip), vehicle: carboxymethylcellulose (CMC).
The mark [9] stands for this setting: dose: 75.0 mg/kg/injection, schedule: Q01DX001 (ip), vehicle: saline.
Setting [10] is: dose: 75.0 mg/kg/injection, schedule: Q01DX009 (ip), vehicle: saline.
[11] abbreviates: dose: 150.0 mg/kg/injection, schedule: Q01DX001 (ip), vehicle: saline.

Regarding `O=S1(=O)CC(Cl)C(Cl)C1` (centres undefined), the T/C (dose: 1.56 mg/kg/injection, schedule: Q01DX009 (ip), vehicle: saline) was 90 % of control; the T/C (dose: 3.12 mg/kg/injection, schedule: Q01DX009 (ip), vehicle: saline) was 91 % of control; the T/C (dose: 6.25 mg/kg/injection, schedule: Q01DX009 (ip), vehicle: saline) was 91 % of control; the T/C (dose: 12.5 mg/kg/injection, schedule: Q01DX001 (ip), vehicle: other) was 94 % of control; the T/C (dose: 12.5 mg/kg/injection, schedule: Q01DX001 (ip), vehicle: saline with Tween-80) was 98 % of control; the T/C (dose: 12.5 mg/kg/injection, schedule: Q01DX009 (ip), vehicle: other) was 90 % of control. Also, the T/C reads like this: (dose: 12.5 mg/kg/injection, schedule: Q01DX009 (ip), vehicle: saline) 98 % of control; (dose: 12.5 mg/kg/injection, schedule: Q04DX003 (ip), vehicle: Klucel (hydroxypropylcellulose) (HPC)) 106 % of control; (dose: 25.0 mg/kg/injection, schedule: Q01DX001 (ip), vehicle: other) 95 % of control; (dose: 25.0 mg/kg/injection, schedule: Q01DX001 (ip), vehicle: saline with Tween-80) 100 % of control; (dose: 25.0 mg/kg/injection, schedule: Q04DX003 (ip), vehicle: Klucel (hydroxypropylcellulose) (HPC)) 108 % of control; under setting [1], 101 % of control. For the same compound, the T/C is, setting by setting: (dose: 50.0 mg/kg/injection, schedule: Q01DX001 (ip), vehicle: other) 95 % of control; (dose: 50.0 mg/kg/injection, schedule: Q04DX003 (ip), vehicle: Klucel (hydroxypropylcellulose) (HPC)) 92 % of control; under setting [2], 90 % of control.
On to `c1ccc(N/N=C(\c2ccccc2)c2cccs2)cc1`, for which the T/C was 97 % of control (dose: 100.0 mg/kg/injection, schedule: Q01DX009 (ip), vehicle: saline with Tween-80); 98 % of control under setting [3]; 97 % of control (dose: 200.0 mg/kg/injection, schedule: Q01DX009 (ip), vehicle: saline with Tween-80); 104 % of control under setting [4]; 91 % of control (dose: 400.0 mg/kg/injection, schedule: Q01DX009 (ip), vehicle: saline with Tween-80); 98 % of control under setting [5].
For `COC(=O)NS(=O)(=O)/C=C/N1CCCC1=O`, the T/C reads like this: (dose: 75.0 mg/kg/injection, schedule: Q04DX003 (ip), vehicle: Klucel (hydroxypropylcellulose) (HPC)) 96 % of control; (dose: 150.0 mg/kg/injection, schedule: Q04DX003 (ip), vehicle: Klucel (hydroxypropylcellulose) (HPC)) 100 % of control; (dose: 300.0 mg/kg/injection, schedule: Q04DX003 (ip), vehicle: Klucel (hydroxypropylcellulose) (HPC)) 100 % of control.
Turning to `O=C(Nc1ccc2c(c1)C(S)c1ccccc1-2)C(F)(F)F` (centres undefined), the T/C reads like this: under setting [6], 96 % of control; under setting [7], 101 % of control; under setting [8], 95 % of control.
As for `CC(=O)OC12CCC34CCC5(CCC(OC(C)=O)(O1)C5C32)O4` (centres undefined), the T/C was 105 % of control (dose: 100.0 mg/kg/injection, schedule: Q01DX001 (ip), vehicle: saline with Tween-80); 98 % of control (dose: 200.0 mg/kg/injection, schedule: Q01DX001 (ip), vehicle: saline with Tween-80); 98 % of control (dose: 400.0 mg/kg/injection, schedule: Q01DX001 (ip), vehicle: saline with Tween-80).
`O=C1c2ccccc2-c2cc(Br)c([N+](=O)[O-])c(Br)c21`: the T/C was 96 % of control under setting [6], 101 % of control under setting [7] and 102 % of control under setting [8].
With `Cc1ccc(N=Nc2cc(C(C)C)c(O)cc2C)cc1`, the T/C is 97 % of control (dose: 100.0 mg/kg/injection, schedule: Q01DX001 (ip), vehicle: other); 97 % of control (dose: 200.0 mg/kg/injection, schedule: Q01DX001 (ip), vehicle: other); 95 % of control (dose: 400.0 mg/kg/injection, schedule: Q01DX001 (ip), vehicle: other).
As for `CCOc1ccccc1/C=N/N1CCN(/N=C/c2ccccc2OCC)CC1`, the T/C (dose: 100.0 mg/kg/injection, schedule: Q01DX001 (ip), vehicle: saline) was 100 % of control; the T/C (dose: 200.0 mg/kg/injection, schedule: Q01DX001 (ip), vehicle: saline) is 90 % of control; the T/C (dose: 400.0 mg/kg/injection, schedule: Q01DX001 (ip), vehicle: saline) is 90 % of control.
As to `COc1ccc(Nc2cccc(Cl)c2)c(C(=O)O)c1`, the T/C is, setting by setting: (dose: 40.0 mg/kg/injection, schedule: Q01DX009 (ip), vehicle: saline) 100 % of control; under setting [9], 98 % of control; under setting [10], 87 % of control; under setting [11], 90 % of control; (dose: 150.0 mg/kg/injection, schedule: Q01DX009 (ip), vehicle: saline) 87 % of control.
In the case of `Cc1ccc(NC(=O)Nc2cccc(C(F)(F)F)c2)cc1C`, the T/C by setting is: (dose: 100.0 mg/kg/injection, schedule: Q01DX009 (ip), vehicle: Klucel (hydroxypropylcellulose) (HPC)) 98 % of control; (dose: 200.0 mg/kg/injection, schedule: Q01DX009 (ip), vehicle: Klucel (hydroxypropylcellulose) (HPC)) 98 % of control; (dose: 400.0 mg/kg/injection, schedule: Q01DX009 (ip), vehicle: Klucel (hydroxypropylcellulose) (HPC)) 91 % of control.
On to `O=C(CCBr)NCNC(=O)CCBr`, for which the T/C reads like this: (dose: 53.0 mg/kg/injection, schedule: Q04DX003 (ip), vehicle: Klucel (hydroxypropylcellulose) (HPC)) 114 % of control; (dose: 80.0 mg/kg/injection, schedule: Q04DX003 (ip), vehicle: Klucel (hydroxypropylcellulose) (HPC)) 109 % of control; (dose: 100.0 mg/kg/injection, schedule: Q01DX009 (ip), vehicle: saline) 86 % of control; under setting [3], 113 % of control; (dose: 120.0 mg/kg/injection, schedule: Q04DX003 (ip), vehicle: Klucel (hydroxypropylcellulose) (HPC)) 116 % of control; under setting [4], 117 % of control. Further, the T/C is, setting by setting: (dose: 264.0 mg/kg/injection, schedule: Q04DX003 (ip), vehicle: acetone) 153 % of control; (dose: 266.0 mg/kg/injection, schedule: Q04DX003 (ip), vehicle: Klucel (hydroxypropylcellulose) (HPC)) 154 % of control; (dose: 266.0 mg/kg/injection, schedule: Q04DX003 (ip), vehicle: saline) 114 % of control; (dose: 400.0 mg/kg/injection, schedule: Q04DX003 (ip), vehicle: Klucel (hydroxypropylcellulose) (HPC)) 170 % of control; (dose: 400.0 mg/kg/injection, schedule: Q04DX003 (ip), vehicle: acetone) 113 % of control; under setting [5], 151 % of control. In addition, the T/C (dose: 400.0 mg/kg/injection, schedule: Q04DX003 (ip), vehicle: saline) was 120 % of control.
As to `Cc1cc(Cl)nc(Cl)n1`, the T/C was 88 % of control (dose: 25.0 mg/kg/injection, schedule: Q04DX002 (ip), vehicle: saline); 98 % of control (dose: 50.0 mg/kg/injection, schedule: Q04DX002 (ip), vehicle: saline); 98 % of control (dose: 100.0 mg/kg/injection, schedule: Q04DX002 (ip), vehicle: saline).
With `O=C(Nc1cc(Cl)ccc1Oc1cc(Cl)c(Cl)cc1S(=O)(=O)O)Nc1cc(Cl)ccc1Oc1cc(Cl)c(Cl)cc1S(=O)(=O)O`, the T/C (dose: 18.75 mg/kg/injection, schedule: Q01DX009 (ip), vehicle: saline) was 97 % of control; the T/C (dose: 37.5 mg/kg/injection, schedule: Q01DX009 (ip), vehicle: saline) is 90 % of control; the T/C under setting [9] was 106 % of control; the T/C under setting [10] was 94 % of control; the T/C under setting [11] is 97 % of control.
As to `CCN(CC)Cc1cc(Nc2cc(C)nc(Nc3ccc(Cl)c(Cl)c3)n2)ccc1OC`, the T/C runs as follows: (dose: 12.5 mg/kg/injection, schedule: Q01DX009 (ip), vehicle: saline with Tween-80) 98 % of control; (dose: 12.5 mg/kg/injection, schedule: Q04DX003 (ip), vehicle: saline with Tween-80) 98 % of control; (dose: 25.0 mg/kg/injection, schedule: Q01DX009 (ip), vehicle: saline with Tween-80) 105 % of control; under setting [1], 100 % of control; (dose: 50.0 mg/kg/injection, schedule: Q01DX009 (ip), vehicle: saline with Tween-80) 110 % of control; under setting [2], 101 % of control.
